Source: ChEMBL document CHEMBL5053540, “Synthesis and biological evaluation of isatin derivatives containing 1,3,4-thiadiazole as potent a-glucosidase inhibitors” (Bioorg Med Chem Lett, 2021)
Activity calls are given as the source filed them. The rule behind the calls is not given here.

Key:
[1] = Inhibition of Saccharomyces cerevisiae alpha-glucosidase using pNPG as substrate
[2] = tested on: Saccharomyces cerevisiae; assay: Non-competitive inhibition of Saccharomyces cerevisiae alpha-glucosidase assessed as decrease in Vmax without affecting Km using varying levels of p-NPG as substrate by Lineweaver-burk plot analysis
[3] = tested on: Saccharomyces cerevisiae; assay: Potency index, ratio of resveratrol IC50 to test compound IC50 for inhibition of Saccharomyces cerevisiae alpha-glucosidase using pNPG as substrate
[4] = Non-competitive inhibition of Saccharomyces cerevisiae alpha-glucosidase assessed as inhibition constant by secondary re-plot of Lineweaver-burk plot analysis

SMILES | IC50 [1] [µM] | other results
COc1ccc(CN2C(=O)/C(=N\Nc3nncs3)c3ccccc32)cc1 | 46 | –
Cc1ccc(CN2C(=O)/C(=N\Nc3nncs3)c3ccccc32)cc1 | 29.2 | –
O=C1/C(=N\Nc2nncs2)c2ccccc2N1Cc1cccc(Cl)c1 | 7.25 | –
Cc1cccc(CN2C(=O)/C(=N\Nc3nncs3)c3ccccc32)c1 | 32.3 | –
Oc1ccc(/C=C/c2cc(O)cc(O)c2)cc1 [RESVERATROL] | 22 | –
N#Cc1cccc(CN2C(=O)/C(=N\Nc3nncs3)c3ccccc32)c1 | > 200 | –
COc1cccc(CN2C(=O)/C(=N\Nc3nncs3)c3ccccc32)c1 | 42.3 | –

The next lines start with results.

IC50 [1] [µM] | SMILES | other results
> 200 | N#Cc1ccccc1CN1C(=O)/C(=N\Nc2nncs2)c2ccccc21 | –
25.1 | Cc1ccccc1CN1C(=O)/C(=N\Nc2nncs2)c2ccccc21 | –
8.5 | O=C1/C(=N\Nc2nncs2)c2ccccc2N1Cc1ccccc1Cl | –
18.4 | O=C1/C(=N\Nc2nncs2)c2ccccc2N1Cc1ccccc1F | –
21 | O=C1/C(=N\Nc2nncs2)c2ccccc2N1Cc1ccccc1 | –
13.2 | O=C1/C(=N\Nc2nncs2)c2ccccc2N1Cc1ccccc1Br | –
3.12 | O=C1/C(=N\Nc2nncs2)c2ccccc2N1Cc1ccc(Cl)cc1 | inhibition [2]: Active; Ratio IC50 [3]: 7; Ki [4]: 2.76 µM
